Like-named read-outs stand apart in the source and are kept apart here.
Columns and labels:
WS-1 cell lines = assay: Cytotoxicity assay on WS-1 (Example 1)
Method: Cytotoxicity assay. The cytotoxicity assay was performed in 96-well plates (BD Falcon). The WS-1 cell lines were provided by ATCC. The WS-1 was cultured in DMEM+10% fetal calf serum. The cells were plated in a volume of 100 μL at a density of 5000 cells per well and incubated at 37° C.+5% CO2 for 24 h to promote cell adhesion.
The plates were incubated at 37° C.+5% CO2 for 48 h. The cells were then washed with 100 μL of HBSS and 150 μL of a 2% resazurin were added to the wells.
The therapeutic index is the ratio between the toxicity on normal cells, in this case fibroblast, and the toxicity on bacteria.

Streptococcus pneumoniae = assay: Antibiotic assay (resazurin, Example 1), Streptococcus pneumoniae; type: cell-based; conditions: for IC50: read-out: IC50
Method: (§1) Bacteria Strain. […] The MRSA were obtained as further described below.
(§2) Antibiotic agents. Cyprofloxacin and erythromycin were provided by Sigma-Aldrich. Gentamicin sulfate and vancomycin hydrochloride were provided by Calbiochem.
(§3) Five additional strains were tested: Streptococcus pneumoniae, Streptococcus agalactiae, Streptococcus pyogenes, Enterococcus faecalis and Corynebacterium jeikeium.

[1] = test system: S. aureus wild type strain (ATCC 25923); assay: Antibiotic assay (resazurin, Example 1), S. aureus wild type; type: cell-based, Staphylococcus aureus
Method: as §1, §2
MRSA. Ten (10) strains of MRSA obtained as described above were tested along with an S. aureus wild type (WT) strain (ATCC25923).

Streptococcus agalactiae = assay: Antibiotic assay (resazurin, Example 1), Streptococcus agalactiae; type: cell-based; conditions: for IC50: read-out: IC50
Method: as §1, §2, §3

Streptococcus pyogenes = assay: Antibiotic assay (resazurin, Example 1), Streptococcus pyogenes; type: cell-based; conditions: for IC50: read-out: IC50
Method: as §1, §2, §3

Enterococcus faecalis = assay: Antibiotic assay (resazurin, Example 1), Enterococcus faecalis; type: cell-based; conditions: for IC50: read-out: IC50
Method: as §1, §2, §3

[2] = test system: methicillin-resistant Staphylococcus aureus (MRSA) strains; assay: Antibiotic assay (resazurin, Example 1), MRSA strains; type: cell-based; conditions: for IC50: read-out: IC50
Summary of the method: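 Ten MRSA strains isolated from screening swabs (nares, throat, groin pus) of patients at Chicoutimi hospital were tested, with S. aureus wild-type strain ATCC25923 run alongside. Isolates were identified using the Slidex Staph-Kit and API Staph strips. Methicillin resistance was confirmed by PBP2a latex agglutination and by a Kirby-Bauer disk diffusion antibiogram on Muller-Hinton agar at 37° C.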

Corynebacterium jeikeium = assay: Antibiotic assay (resazurin, Example 1), Corynebacterium jeikeium; type: cell-based; conditions: Coryne. jeikeium 14139
Method: as §1, §2, §3

S. epidermidis = assay: Antibiotic assay (resazurin, Example 1), S. epidermidis strains

Compound: COc1cc(O)c(C(=O)CCc2ccc(O)cc2)c(O)c1C/C=C/c1ccc(O)cc1 [Compound I]
- WS-1 (toxicity on normal cells, fibroblast) (WS-1 cell lines): 49 ± 9
- Minimum Inhibitory Concentration (MIC) (Streptococcus pneumoniae; Strep. pneumoniae 14070): (74.1) μM
- IC50 (Streptococcus pneumoniae; Strep. pneumoniae 14070): 29 ± 5 µM
- Minimum Inhibitory Concentration (MIC) (Streptococcus pneumoniae; Strep. pneumoniae 14112): (66.2) μM
- IC50 (Streptococcus pneumoniae; Strep. pneumoniae 14112): 29 ± 3 µM
- Minimum Inhibitory Concentration (MIC) (Streptococcus pneumoniae; Strep. pneumoniae 14138): (>200) μM
- IC50 (Streptococcus pneumoniae; Strep. pneumoniae 14138): 142 ± 12 µM
- Minimum Inhibitory Concentration (MIC) (Streptococcus pneumoniae; Strep. pneumoniae 14144): (>200) μM
- IC50 (Streptococcus pneumoniae; Strep. pneumoniae 14144): > 200 µM
- Minimum Inhibitory Concentration (MIC) (Streptococcus pneumoniae; Strep. pneumoniae 14148): (81.2) μM
- IC50 (Streptococcus pneumoniae; Strep. pneumoniae 14148): 40 ± 4 µM
- activity against Streptococcus pneumoniae 14070 strain (Streptococcus pneumoniae; in words): active
- activity against Streptococcus pneumoniae strain 14112 (Streptococcus pneumoniae; in words): active
- activity against Streptococcus pneumoniae strain 14138 (Streptococcus pneumoniae; in words): had an activity
- activity against Streptococcus pneumoniae strain 14144 (Streptococcus pneumoniae; in words): not active
- activity against Streptococcus pneumoniae strain 14148 (Streptococcus pneumoniae; in words): active
- Minimum Inhibitory Concentration (MIC) ([1]; S. aureus WT (ATCC 25923)): (6.87) μM
- IC50 ([1]; S. aureus WT (ATCC 25923), read-out: IC50): 2.8 ± 0.9 µM
- IC50 ([1]; Table 5, same values as IC50 of Table 2, read-out: S. aureus WT ATCC 25923 (toxicity on bacteria)): 2.8 ± 0.9 µM
- Minimum Inhibitory Concentration (MIC) (Streptococcus agalactiae; Strep. agalactiae 14150): (200) μM
- IC50 (Streptococcus agalactiae; Strep. agalactiae 14150): 144 ± 2 µM
- Minimum Inhibitory Concentration (MIC) (Streptococcus agalactiae; Strep. agalactiae 14151): (>200) μM
- IC50 (Streptococcus agalactiae; Strep. agalactiae 14151): 198 ± 3 µM
- Minimum Inhibitory Concentration (MIC) (Streptococcus agalactiae; Strep. agalactiae 14153): (>200) μM
- IC50 (Streptococcus agalactiae; Strep. agalactiae 14153): 174 ± 3 µM
- activity against Streptococcus agalactiae strain 14150 (Streptococcus agalactiae; in words): active
- Minimum Inhibitory Concentration (MIC) (Streptococcus pyogenes; Strep. pyogenes 14149): (200) μM
- IC50 (Streptococcus pyogenes; Strep. pyogenes 14149): 118 µM
- Minimum Inhibitory Concentration (MIC) (Streptococcus pyogenes; Strep. pyogenes 14152): (>200) μM
- IC50 (Streptococcus pyogenes; Strep. pyogenes 14152): 44 ± 10 µM
- activity against Streptococcus pyogenes strain 14152 (Streptococcus pyogenes; in words): active
- Minimum Inhibitory Concentration (MIC) (Enterococcus faecalis; Ent. Faecalis 14078): (>200) μM
- IC50 (Enterococcus faecalis; Ent. Faecalis 14078): > 200 µM
- Minimum Inhibitory Concentration (MIC) (Enterococcus faecalis; Ent. Faecalis 14115): (>200) μM
- IC50 (Enterococcus faecalis; Ent. Faecalis 14115): > 200 µM
- activity against Enterococcus faecalis (Enterococcus faecalis; in words): No activity
- Minimum Inhibitory Concentration (MIC) ([2]; MRSA 1): (5.11) μM
- IC50 ([2]; MRSA 1): 2.2 ± 0.2 µM
- Minimum Inhibitory Concentration (MIC) ([2]; MRSA 2): (5.22) μM
- IC50 ([2]; MRSA 2): 2.2 ± 0.2 µM
- Minimum Inhibitory Concentration (MIC) ([2]; MRSA 3): (5.54) μM
- IC50 ([2]; MRSA 3): 2.1 ± 0.2 µM
- Minimum Inhibitory Concentration (MIC) ([2]; MRSA 4): (4.82) μM
- IC50 ([2]; MRSA 4): 2.1 ± 0.2 µM
- Minimum Inhibitory Concentration (MIC) ([2]; MRSA 5): (5.07) μM
- IC50 ([2]; MRSA 5): 1.7 ± 0.2 µM
- Minimum Inhibitory Concentration (MIC) ([2]; MRSA 6): (5.01) μM
- IC50 ([2]; MRSA 6): 2 ± 0.2 µM
- Minimum Inhibitory Concentration (MIC) ([2]; MRSA 7): (4.39) μM
- IC50 ([2]; MRSA 7): 2.1 ± 0.2 µM
- Minimum Inhibitory Concentration (MIC) ([2]; MRSA 8): (4.64) μM
- IC50 ([2]; MRSA 8): 2.1 ± 0.2 µM
- Minimum Inhibitory Concentration (MIC) ([2]; MRSA 9): (5.00) μM
- IC50 ([2]; MRSA 9): 2.3 ± 0.2 µM
- Minimum Inhibitory Concentration (MIC) ([2]; MRSA 10): (5.15) μM
- IC50 ([2]; MRSA 10): 2.6 ± 0.2 µM
- Minimum Inhibitory Concentration (MIC) (Corynebacterium jeikeium): (67.5) μM
- IC50 (Corynebacterium jeikeium; read-out: IC50): 14 ± 3 µM
- IC50 (S. epidermidis; S. epidermidis 14069): 5.3 ± 0.2 µM
- Minimum Inhibitory Concentration (MIC) (S. epidermidis; S. epidermidis 14069): (19.9) μM
- IC50 (S. epidermidis; S. epidermidis 14085): 4.5 ± 0.3 µM
- Minimum Inhibitory Concentration (MIC) (S. epidermidis; S. epidermidis 14085): (23.5) μM
- IC50 (S. epidermidis; S. epidermidis 14093): 8.6 ± 0.6 µM
- Minimum Inhibitory Concentration (MIC) (S. epidermidis; S. epidermidis 14093): (11.6) μM
- IC50 (S. epidermidis; S. epidermidis 14134): 3.7 ± 0.4 µM
- Minimum Inhibitory Concentration (MIC) (S. epidermidis; S. epidermidis 14134): (19) μM
- IC50 (S. epidermidis; S. epidermidis 14143): 6.7 ± 0.3 µM
- Minimum Inhibitory Concentration (MIC) (S. epidermidis; S. epidermidis 14143): (15.2) μM
- activity on S. epidermidis compared with ciprofloxacin (S. epidermidis; in words): more active than ciprofloxacin

Source: patent publication US9499509B2, “Dihydrochalcone derivatives and their use as antibiotic agents” (UNIVERSITÉ DU QUÉBEC À CHICOUTIMI, priority 2012, dated 2016)
